Test: Water solubility of the dyes (excess dye heated at 50 °C in water, cooled to 20 °C, filtered, determined spectroscopically)
Assay type: physicochemical
Conditions: after heating at 50 °C for one hour
Experimental: The solubilities of the dyes according to the invention were determined as follows:
An excess of dye was heated at 50° C. in water with stirring for one hour. The mixture was then cooled down to 20 ° C. and filtered, and the dye content of the clear solution was determined spectroscopically.

Row | Structure (SMILES) | solubility [g per 100 ml]
1 | COc1cc(N=Nc2cc(S(=O)(=O)O)c3cccc(S(=O)(=O)O)c3c2)c(C)cc1Nc1nc(O)nc(NCCS(=O)(=O)O)n1 [Compound 100] | 31
2 | COc1cc(N=Nc2cc(S(=O)(=O)O)c3cccc(S(=O)(=O)O)c3c2)c(C)cc1Nc1nc(NCCS(=O)(=O)O)nc(SCC(=O)O)n1 [Compound 102] | 54
3 | COc1cc(N=Nc2cc(S(=O)(=O)O)c3cccc(S(=O)(=O)O)c3c2)c(C)cc1Nc1nc(NCCS(=O)(=O)O)nc(SCCO)n1 [Compound 101] | 40

Other lines, results leading:

Row | solubility [g per 100 ml] | Structure (SMILES)
4 | 17 | CCN(c1nc(Cl)nc(Nc2cc(NC(C)=O)c(N=Nc3cc(S(=O)(=O)O)c4cccc(S(=O)(=O)O)c4c3)cc2OC)n1)c1cc(S(=O)(=O)O)ccc1C [dye 5, reference compound]
5 | 11 | CCN(c1nc(Cl)nc(Nc2ccc(N=Nc3cc4c(S(=O)(=O)O)cc(S(=O)(=O)O)cc4cc3S(=O)(=O)O)c(NC(N)=O)c2)n1)c1cc(S(=O)(=O)O)ccc1C [dye 1, reference compound]
